Legend:
Assay type in all cases: functional
[1] = Growth inhibition of human NCI-ADR-RES cells assessed as cell growth at 10^-5 M after 48 hrs by sulforhodamine B assay; settings: read-out: Activity
[2] = Growth inhibition of human OVCAR4 cells assessed as cell growth at 10^-5 M after 48 hrs by sulforhodamine B assay; settings: OVCAR-4, 48 h, read-out: Activity
[3] = Growth inhibition of human OVCAR5 cells assessed as cell growth at 10^-5 M after 48 hrs by sulforhodamine B assay; settings: OVCAR-5, 48 h, read-out: Activity
[4] = Growth inhibition of human OVCAR3 cells assessed as cell growth at 10^-5 M after 48 hrs by sulforhodamine B assay; settings: OVCAR-3, 48 h, read-out: Activity
IGROV-1 = assay: Growth inhibition of human IGROV1 cells assessed as cell growth at 10^-5 M after 48 hrs by sulforhodamine B assay; settings: IGROV-1, 48 h, read-out: Activity
SK-MEL-5 = assay: Growth inhibition of human SK-MEL-5 cells assessed as cell growth at 10^-5 M after 48 hrs by sulforhodamine B assay; settings: SK-MEL-5, 48 h, read-out: Activity
SK-MEL-28 = assay: Growth inhibition of human SK-MEL-28 cells assessed as cell growth at 10^-5 M after 48 hrs by sulforhodamine B assay; settings: SK-MEL-28, 48 h, read-out: Activity
MDA-MB-435 = assay: Growth inhibition of human MDA-MB-435 cells assessed as cell growth at 10^-5 M after 48 hrs by sulforhodamine B assay; settings: MDA-MB-435, 48 h, read-out: Activity
Malme-3M = assay: Growth inhibition of human MALME-3M cells assessed as cell growth at 10^-5 M after 48 hrs by sulforhodamine B assay; settings: read-out: Activity
[5] = Growth inhibition of human LOXIMVI cells assessed as cell growth at 10^-5 M after 48 hrs by sulforhodamine B assay; settings: LOX IMVI, read-out: Activity
SNB-19 = assay: Growth inhibition of human SNB19 cells assessed as cell growth at 10^-5 M after 48 hrs by sulforhodamine B assay; settings: SNB-19, 48 h, read-out: Activity
[6] = Growth inhibition of human SF539 cells assessed as cell growth at 10^-5 M after 48 hrs by sulforhodamine B assay; settings: SF-539, 48 h, read-out: Activity
SF-268 = assay: Growth inhibition of human SF268 cells assessed as cell growth at 10^-5 M after 48 hrs by sulforhodamine B assay; settings: SF-268, 48 h, read-out: Activity
SW-620 = assay: Growth inhibition of human SW620 cells assessed as cell growth at 10^-5 M after 48 hrs by sulforhodamine B assay; settings: SW-620, 48 h, read-out: Activity
KM12 = assay: Growth inhibition of human KM12 cells assessed as cell growth at 10^-5 M after 48 hrs by sulforhodamine B assay; settings: KM12, 48 h, read-out: Activity
[7] = Growth inhibition of human HCT15 cells assessed as cell growth at 10^-5 M after 48 hrs by sulforhodamine B assay; settings: HCT-15, 48 h, read-out: Activity
HCT-116 = assay: Growth inhibition of human HCT116 cells assessed as cell growth at 10^-5 M after 48 hrs by sulforhodamine B assay; settings: HCT-116, 48 h, read-out: Activity
[8] = Growth inhibition of human HCC2998 cells assessed as cell growth at 10^-5 M after 48 hrs by sulforhodamine B assay; settings: HCC 2998, 48 h, read-out: Activity
COLO 205 = assay: Growth inhibition of human COLO205 cells assessed as cell growth at 10^-5 M after 48 hrs by sulforhodamine B assay; settings: COLO 205, 48 h, read-out: Activity
NCI-H460 = assay: Growth inhibition of human NCI-H460 cells assessed as cell growth at 10^-5 M after 48 hrs by sulforhodamine B assay; settings: NCI-H460, 48 h, read-out: Activity
NCI-H226 = assay: Growth inhibition of human NCI-H226 cells assessed as cell growth at 10^-5 M after 48 hrs by sulforhodamine B assay; settings: NCI-H226, 48 h, read-out: Activity
RPMI-8226 = assay: Growth inhibition of human RPMI8226 cells assessed as cell growth at 10^-5 M after 48 hrs by sulforhodamine B assay; settings: RPMI-8226, 48 h, read-out: Activity
K562 = assay: Growth inhibition of human K562 cells assessed as cell growth at 10^-5 M after 48 hrs by sulforhodamine B assay; settings: K562, 48 h, read-out: Activity
T47D = assay: Growth inhibition of human T47D cells assessed as cell growth at 10^-5 M after 48 hrs by sulforhodamine B assay; settings: read-out: Activity
[9] = Growth inhibition of human BT549 cells assessed as cell growth at 10^-5 M after 48 hrs by sulforhodamine B assay; settings: BT-549, 48 h, read-out: Activity
MDA-MB-231 = assay: Growth inhibition of human MDA-MB-231 cells assessed as cell growth at 10^-5 M after 48 hrs by sulforhodamine B assay; settings: MDA-MB-231, 48 h, read-out: Activity
MCF7 = assay: Growth inhibition of human MCF7 cells assessed as cell growth at 10^-5 M after 48 hrs by sulforhodamine B assay; settings: MCF7, 48 h, read-out: Activity
PC-3 = assay: Growth inhibition of human PC3 cells assessed as cell growth at 10^-5 M after 48 hrs by sulforhodamine B assay; settings: PC-3, 48 h, read-out: Activity
[10] = Growth inhibition of human UO31 cells assessed as cell growth at 10^-5 M after 48 hrs by sulforhodamine B assay; settings: UO-31, 48 h, read-out: Activity
TK-10 = assay: Growth inhibition of human TK10 cells assessed as cell growth at 10^-5 M after 48 hrs by sulforhodamine B assay; settings: TK-10, 48 h, read-out: Activity
SN12C = assay: Growth inhibition of human SN12C cells assessed as cell growth at 10^-5 M after 48 hrs by sulforhodamine B assay; settings: read-out: Activity
[11] = Growth inhibition of human RXF393 cells assessed as cell growth at 10^-5 M after 48 hrs by sulforhodamine B assay; settings: RXF 393, 48 h, read-out: Activity
CAKI-1 = assay: Growth inhibition of human CAKI-1 cells assessed as cell growth at 10^-5 M after 48 hrs by sulforhodamine B assay; settings: CAKI-1, 48 h, read-out: Activity
ACHN = assay: Growth inhibition of human ACHN cells assessed as cell growth at 10^-5 M after 48 hrs by sulforhodamine B assay; settings: read-out: Activity
A498 = assay: Growth inhibition of human A498 cells assessed as cell growth at 10^-5 M after 48 hrs by sulforhodamine B assay; settings: A498, 48 h, read-out: Activity
786-0 = assay: Growth inhibition of human 786-0 cells assessed as cell growth at 10^-5 M after 48 hrs by sulforhodamine B assay; settings: 786-0, 48 h, read-out: Activity

Row | SMILES | growth at 10 µM [1] [%] | growth at 10 µM [2] [%] | growth at 10 µM [3] [%] | growth at 10 µM [4] [%] | growth at 10 µM (IGROV-1) [%] | growth at 10 µM (SK-MEL-5) [%] | growth at 10 µM (SK-MEL-28) [%] | growth at 10 µM (MDA-MB-435) [%] | growth at 10 µM (Malme-3M) [%] | growth at 10 µM [5] [%] | growth at 10 µM (SNB-19) [%] | growth at 10 µM [6] [%] | growth at 10 µM (SF-268) [%] | growth at 10 µM (SW-620) [%] | growth at 10 µM (KM12) [%] | growth at 10 µM [7] [%] | growth at 10 µM (HCT-116) [%] | growth at 10 µM [8] [%] | growth at 10 µM (COLO 205) [%] | growth at 10 µM (NCI-H460) [%] | also measured
1 | O=C1/C(=C/c2c(Cl)cccc2Cl)CN(S(=O)(=O)c2ccccc2)C/C1=C\c1c(Cl)cccc1Cl | 81.6 | 84.6 | 103 | 73.9 | 100 | 85.3 | 88.1 | 72.7 | 90 | 78 | 92.7 | 99.9 | 78.6 | 89.4 | 74.8 | 62 | 61.7 | 103 | 92.4 | 74 | growth at 10 µM (NCI-H226): 110%; growth at 10 µM (RPMI-8226): 63.3%; growth at 10 µM (K562): 77.8%; growth at 10 µM (T47D): 88.8%; growth at 10 µM [9]: 89.3%; growth at 10 µM (MDA-MB-231): 71.2%; growth at 10 µM (MCF7): 48.5%; growth at 10 µM (PC-3): 57.5%; growth at 10 µM [10]: 73.7%; growth at 10 µM (TK-10): 101%; growth at 10 µM (SN12C): 86.3%; growth at 10 µM [11]: 95.3%; growth at 10 µM (CAKI-1): 136%; growth at 10 µM (ACHN): 76.3%; growth at 10 µM (A498): 91.6%; growth at 10 µM (786-0): 93%
2 | Cc1ccc(S(=O)(=O)N2C/C(=C\c3c(Cl)cccc3Cl)C(=O)/C(=C/c3c(Cl)cccc3Cl)C2)cc1 | 90.9 | 85.3 | 103 | 84 | 104 | 85 | 101 | 93.5 | 89 | 79.4 | 95.7 | 106 | 83.6 | 101 | 88.7 | 80.7 | 74.2 | 114 | 110 | 83.3 | growth at 10 µM (NCI-H226): 98.1%; growth at 10 µM (RPMI-8226): 82.9%; growth at 10 µM (K562): 81.6%; growth at 10 µM (T47D): 94%; growth at 10 µM [9]: 101%; growth at 10 µM (MDA-MB-231): 64.3%; growth at 10 µM (MCF7): 64.5%; growth at 10 µM (PC-3): 67.3%; growth at 10 µM [10]: 72.5%; growth at 10 µM (TK-10): 115%; growth at 10 µM (SN12C): 85.6%; growth at 10 µM [11]: 101%; growth at 10 µM (CAKI-1): 61.6%; growth at 10 µM (ACHN): 84.2%; growth at 10 µM (A498): 109%; growth at 10 µM (786-0): 93.3%
3 | O=C1/C(=C/c2ccc(Cl)cc2Cl)CN(S(=O)(=O)c2ccccc2)C/C1=C\c1ccc(Cl)cc1Cl | 20.5 | 8 | -12 | -67 | -39 | 47 | 27 | -48 | -21 | -58.7 | -39.1 | -54.1 | 4.96 | -15.2 | -57.2 | -23 | -84 | -83 | -38 | -60 | growth at 10 µM (NCI-H226): -62%; growth at 10 µM (RPMI-8226): -29%; growth at 10 µM (K562): 0.79%; growth at 10 µM (T47D): 7%; growth at 10 µM [9]: -72.8%; growth at 10 µM (MDA-MB-231): -52%; growth at 10 µM (MCF7): 12%; growth at 10 µM (PC-3): -25%; growth at 10 µM [10]: -63%; growth at 10 µM (SN12C): -47%; growth at 10 µM [11]: -87%; growth at 10 µM (CAKI-1): -66.1%; growth at 10 µM (ACHN): -24%; growth at 10 µM (A498): -27%; growth at 10 µM (786-0): -91%
4 | Cc1ccc(S(=O)(=O)N2C/C(=C\c3cc(F)cc(F)c3)C(=O)/C(=C/c3cc(F)cc(F)c3)C2)cc1 | 7.23 | -31.4 | -65 | -84 | -77 | -92 | -87 | -76.6 | -75 | -98 | -97 | -72 | -43 | -79 | -82 | -35 | -94 | -89 | -73 | -53 | growth at 10 µM (NCI-H226): 47%; growth at 10 µM (RPMI-8226): -36%; growth at 10 µM (K562): -19%; growth at 10 µM (T47D): -20%; growth at 10 µM [9]: -89%; growth at 10 µM (MDA-MB-231): -53%; growth at 10 µM (MCF7): -75.4%; growth at 10 µM (PC-3): -60.3%; growth at 10 µM [10]: -92%; growth at 10 µM (TK-10): -58%; growth at 10 µM (SN12C): -86%; growth at 10 µM [11]: -88%; growth at 10 µM (CAKI-1): -25%; growth at 10 µM (ACHN): -91.4%; growth at 10 µM (A498): -59%; growth at 10 µM (786-0): -87%
